“And” between values parts separate entries of the source, which are not always exact repeats. Equal entries are not always repeated.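 Values below derive from 48-hour exposures of cells grown in 96-well plates, with endpoints linearly interpolated between the two concentrations bracketing the appropriate inhibition level. GI50 = concentration required for 50% inhibition of growth. TGI: total growth inhibition.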 *1 amine or outer side, *2 acyl side, *3 side chain or, on linkers, in order; H or OH if unused. Where a SMILES comes first, the peptide text is derived from it. Bridges are numbered along the chain shown (N, C = ends). Roman numbers before positions name the chains, in order. [ ]: non-standard residue; d: D form. Actinocin(9to1) = Cc1c2oc3c(C)ccc(C(=O)[*:1])c3nc-2c(C(=O)[*:2])c(N)c1=O; NMeV = CN[CH](C(=O)O)C(C)C; Sar = CNCC(=O)O
What was measured:
Assay in all cases: DTP human tumour cell line panel, 48 h
[1] = tested on: T-47D breast
[2] = tested on: A549 NSCLC
[3] = tested on: NCI-H460 lung
[4] = tested on: HOP-92 NSCLC
[5] = tested on: HCT-116 colon
[6] = tested on: SNB-19 CNS
[7] = tested on: RPMI-8226 leukemia
[8] = tested on: BT-549 breast

Row | SMILES | GI50 [1] | TGI [1] | GI50 [2] | TGI [2] | GI50 [3] | TGI [3] | GI50 [4] | TGI [4] | GI50 [5] | TGI [5] | GI50 [6] | TGI [6] | GI50 [7] | TGI [7] | GI50 [8] | TGI [8]
1 | Cc1ccc2[nH]c3c(c2c1)N=c1ccccc1=NO3 | 74.4 µM | > 100 µM | > 100 µM | > 100 µM | 45.9 µM | > 100 µM | > 100 µM | > 100 µM | 83.8 µM | > 100 µM | 32.6 µM | > 100 µM | > 100 µM | > 100 µM | 14.2 µM | 51.6 µM
2 | COc1ccc(OC)c(NC(=O)c2cccc(NC3=C(Cl)C(=O)N(Cc4ccccc4)C3=O)c2)c1 | > 100 µM | > 100 µM | > 100 µM | > 100 µM | > 58.1 µM | > 100 µM | > 100 µM | > 100 µM | > 86.2 µM | > 100 µM | > 100 µM | > 100 µM | 15.9 µM | > 79 µM | 18.3 µM | > 100 µM
3 | CCCCCCCN(CCCCCCC)C(=N)c1ccnc2ccccc12 | 1.78 µM | 4.3 µM | 1.77 µM | 3.41 µM | 1.69 µM | 3.27 µM | 1.33 µM | 3 µM | – | – | 1.79 µM | 3.68 µM | 1.65 µM | 4.21 µM | 1.36 µM | 2.74 µM
4 | c1cc(CN2CCCNCCNCCCNCC2)ccc1CN1CCCNCCNCCCNCC1 | > 100 µM | > 100 µM | > 100 µM | > 100 µM | > 100 µM | > 100 µM | > 100 µM | > 100 µM | > 100 µM | > 100 µM | > 100 µM | > 100 µM | > 100 µM | > 100 µM | > 100 µM | > 100 µM
5 | COc1cc(OC)cc(-c2nc3sccn3c2/C=N/N=C(N)N)c1 | 7.23 µM | 17.6 µM | 10 µM | 19.8 µM | 13.3 µM | 42.9 µM | – | – | – | – | 9.29 µM | 19.3 µM | 10.7 µM | 21.6 µM | 6.87 µM | 14 µM
6 | C=C(C)[C@@H]1C/C=C(/CO)CC[C@H]2O[C@]2(C)CC/C=C(\C)CC1 | 17.4 µM | 47.8 µM | 16.1 µM | 50.3 µM | 11.5 µM | 27 µM | – | – | 19.3 µM | 38.3 µM | 18 µM | 33.8 µM | – | – | 17.5 µM | 34.7 µM
7 | O=C(O)CNc1ccc(Cl)c(Cl)c1 | – | > 100 µM | – | > 100 µM | – | 69.8 µM | – | 51.6 µM | – | 44.7 µM | – | > 100 µM | – | 55.2 µM | – | > 100 µM
8 | Nc1ncn(C2OC(COP(=O)(O)O)C(O)C2O)c(=O)n1 (stereo not given) | – | > 100 µM | – | > 100 µM | – | > 100 µM | – | > 100 µM | – | > 100 µM | – | > 100 µM | – | > 100 µM | – | > 100 µM
9 | O=C(Nc1ccc2ncnc(Nc3ccc(Oc4cccc(F)c4)c(Cl)c3)c2c1)c1ccc(CN2CCOCC2)cc1 | 1.09 µM | 4.2 µM | 2.35 µM | 10.3 µM | 2.39 µM | 6.39 µM | 2.38 µM | 15.4 µM | 2.55 µM | 8.94 µM | 3.53 µM | > 100 µM | – | – | 2.3 µM | 7.56 µM
10 | O=C1Nc2ccccc2/C1=C\c1cccc(/C=C2/C(=O)Nc3ccccc32)n1 | 1.13 µM | 3.4 µM | – | – | 0.669 µM | 1.85 µM | 1.48 µM | 4.49 µM | 0.155 µM | 0.296 µM | 0.526 µM | 1.98 µM | 0.232 µM | 0.699 µM | – | –
11 | COC12C=C/C(=C(/C(=O)OCCSc3ccnn3C)C(=O)CCCCCCCCC3(OC)C=C/C(=C(/C(=O)OCCSc4ccnn4C)C(=O)CCCCCCCC1)O3)O2 | 1.26 µM | > 32.5 µM | 0.882 µM | 2.66 µM | 1.07 µM | 3.76 µM | 0.847 µM | 2.55 µM | 0.66 µM | 1.37 µM | 1.88 µM | > 32.5 µM | 0.895 µM | 2.65 µM | 0.954 µM | 2.83 µM
12 | CN(C)C[C@H]1CCn2c(c(C3=C(c4cn(C)c5ccccc45)C(=O)NC3=O)c3ccccc32)C1 | 5.43 µM | 11.2 µM | 5.11 µM | 11.7 µM | 4.86 µM | 9.55 µM | 4.19 µM | 10.9 µM | 3.47 µM | 7.27 µM | 5.65 µM | 16.6 µM | 4.88 µM | 10.5 µM | 4.83 µM | 9.53 µM
13 | Cc1c(NC(=O)CCl)c(=O)oc2c(C)c3occc(=O)c3cc12 | – | 66.3 µM | – | 35 µM | – | 27.5 µM | – | 27.5 µM | – | 25.9 µM | – | 33.6 µM | – | 60.1 µM | – | –
14 | CCCCCCCCCCCC[N+](C)(C)Cc1ccccc1 | 2.68 µM | 15.5 µM | 2.04 µM | 5.21 µM | 3.42 µM | 12.7 µM | – | – | 1.33 µM | 2.8 µM | 2.11 µM | 7.12 µM | 1.28 µM | 3.31 µM | 1.74 µM | 3.29 µM
15 | CCN(CC)CCCOc1ccc2ncnc(Nc3ccc(Oc4cccc(C(F)(F)F)c4)c(Cl)c3)c2c1 | 1.41 µM | 3.76 µM | – | – | 1.78 µM | 3.33 µM | 1.23 µM | 2.61 µM | – | – | – | – | – | – | – | –
16 | Cc1cn(CCC(N)C(=O)O)c(=O)[nH]c1=O (stereo not given) | – | > 100 µM | – | > 100 µM | – | > 100 µM | – | > 100 µM | – | > 100 µM | – | > 100 µM | – | > 100 µM | – | > 100 µM
17 | COc1ccc(C(C#N)=C2C=CC(=NO)C=C2)cc1 | 1.76 µM | 5.36 µM | 16.5 µM | 39.8 µM | 3.17 µM | 12 µM | – | – | 2.27 µM | 5.55 µM | 16.1 µM | 32.1 µM | 3.2 µM | 17.9 µM | 14.4 µM | 29 µM
18 | Cc1c2oc3c(C)ccc(C(=O)OC(C)C4NC(=O)C(C(C)C)N(C)C(=O)CN(C)C(=O)C5CCCN5C(=O)C(C(C)C)NC4=O)c3nc-2c(C(=O)OC(C)C2NC(=O)C(C(C)C)N(C)C(=O)CN(C)C(=O)C3CCCN3C(=O)C(C(C)C)NC2=O)c(N)c1=O (stereo not given) (I: cyclo([Sar][NMeV]TVP) / II: cyclo([Sar][NMeV]TVP); linker I:3-II:3 via Actinocin(9to1); configuration not given here) | < 0.01 µM | > 100 µM | – | – | < 0.01 µM | > 32.7 µM | < 0.01 µM | 0.0989 µM | < 0.01 µM | > 100 µM | < 0.01 µM | > 55.5 µM | < 0.01 µM | 0.0582 µM | < 0.01 µM | 0.0363 µM
19 | O=C(O)C(Br)C(Br)C(=O)O (stereo not given) | – | – | – | > 100 µM | – | > 100 µM | – | > 100 µM | – | > 100 µM | – | > 100 µM | – | > 100 µM | – | > 100 µM
20 | O=C1NC(O)c2ccccc2O1 (stereo not given) | – | – | – | > 100 µM | – | > 100 µM | – | > 100 µM | – | > 100 µM | – | > 100 µM | – | – | – | > 100 µM
21 | COc1cc(-c2nn(-c3cccc(NC(=O)NCCNS(=O)(=O)c4ccc(Cl)cc4)c3)cc2-c2ccncc2)ccc1Cl | 0.646 µM | 18.1 µM | 1.93 µM | 37.4 µM | 0.413 µM | 3.69 µM | 0.886 µM | 5.45 µM | 0.381 µM | 2.47 µM | 1.16 µM | > 100 µM | – | – | 1.23 µM | 5.14 µM
22 | CCC[CH2][Sn]([CH2]CCC)([CH2]CCC)[O]C(=O)C(OC(C)=O)c1ccccc1 (stereo not given) | – | – | 0.143 µM | 0.309 µM | 0.138 µM | 0.28 µM | 0.0409 µM | 0.222 µM | 0.136 µM | 0.276 µM | 0.176 µM | 0.322 µM | 0.0212 µM | 0.298 µM | – | –
23 | C/C(=N\NC(=O)CC#N)C(CN1CCCCC1)C(c1ccccc1)c1c(O)c2ccccc2oc1=O (stereo not given) | – | – | – | > 100 µM | – | – | – | 95.7 µM | – | > 100 µM | – | > 100 µM | – | > 100 µM | – | > 100 µM
24 | CC(=O)O[C@@]12CO[C@@H]1C[C@H](O)[C@@]1(C)C(=O)[C@H](O)C3=C(C)[C@@H](OC(=O)[C@H](O)[C@@H](NC(=O)OC(C)(C)C)c4ccccc4)C[C@@](O)([C@@H](OC(=O)c4ccccc4)C12)C3(C)C (stereo not given in full) | – | – | < 0.005 µM | 50 µM and > 100 µM | < 0.005 µM | 20.1 µM and > 100 µM | < 0.005 µM and 0.0181 µM | 17.1 µM and 8.9 µM | < 0.005 µM | 50 µM and > 100 µM | 0.031 µM | > 100 µM | < 0.005 µM | 34 µM and 24.5 µM | – | 0.0338 µM
25 | CCC#CC[C@H](O)C/C=C1/C(=O)C=C[C@@H]1C/C=C\CCCC(=O)OC | – | – | 1.6 µM | 5.52 µM | 1.31 µM | 3.55 µM | 1.52 µM | 5.81 µM | 0.235 µM | 1.1 µM | 3.29 µM | 10.3 µM | 0.657 µM | 2.86 µM | 1.22 µM | 3.04 µM

From PubChem BioAssay (NCI)
